Measurements as given in patent US5889053A, “Farnesyl transferase inhibitors, preparation thereof and pharmaceuticals compositions containing said inhibitors” (Rhone-Poulenc Rorer S.A., priority 1995, dated 1999).

How the values were obtained:
[1] = target: T1, human farnesyl transferase (Homo sapiens, UniProt P49354+P49356); test: Inhibition of farnesyl transferase and of farnesylation of the Ras protein ([3H]farnesyl transfer from [3H]FPP to p21 H-Ras); assay type: biochemical; conditions: p21 H-Ras substrate, 20 min at 37° C., 9 concentrations; read-out: Inhibitory activity IC50
T1 construct: human farnesyl transferase purified from THP1 cell cultures; endogenous in cells; host or cells: THP1
Protocol: Farnesyl transferase activity is determined by the quantity of [^3 H]farnesyl transferred from [^3 H]farnesyl pyrophosphate ([^3 H]FPP) to the p21 H-Ras protein. The standard reaction mixture is composed, for a final volume of 60 μl, of 50 mM Tris-HCl, 5 mM MgCl2, 5 mM dithiothreitol, 0.2% octyl β-D-glucopyranoside, 200 picomol p21 H-Ras, 4.5 picomol [^3 H]FPP (activity 61000 dpm/picomol).
Reaction is initiated by adding approximately 5 ng of human farnesyl transferase purified from THP1 cell cultures. After incubation for 20 minutes at 37° C. in a microtitration plate containing 96 1-cm^3 wells per plate (Titer Plate®, Beckman), the reaction is stopped by adding 0.4 cm^3 of 0.1% SDS in methanol at 0° C. The mixture is then treated with 0.4 cm^3 of 30% trichloroacetic acid (TCA) in methanol. The plates are left in ice for 1 hour. The precipitated contents are then retained on Filtermat®, Pharmacia) glass fibre membranes with the filtration unit (Combi Cell Harvester®, Skatron), and rinsed with 6% trichloroacetic acid in distilled water. The membranes are dried in a microwave oven, then impregnated with scintillation medium by melting of Meltilex® (Pharmacia) under hot air, and lastly counted in cpm in a β-Plate counter® (LKB). Each test is repeated 3 times.
The unit of activity is defined as 1 picomole of [^3 H]FPP transferred to p21 H-Ras in 20 minutes.
The percentage inhibition values are obtained by comparison of the tests with and without inhibitor after deduction of blanks, the IC50 values being measured on the basis of the inhibitions obtained with 9 different concentrations using Enzfitter® or Grafit® software.

[2] = system: farnesylation of the Ras protein in THAC cells (CCL 39 cells transfected with activated Ha-Ras); test: Activity against cells: inhibition of farnesylation of the Ras protein in THAC cells (Western blot); assay type: cell-based; conditions: CCL39, 24 h at 37° C.
Protocol: The activity against cells can be determined in the following way:
The cell line is the THAC line (CCL 39 cells transfected with activated Ha-Ras) according to K. Seuwen et al., EMBO J., 7(1) 161-168 (1988). The cells are cultured in Petri dishes with a diameter of 6 cm containing a DMEM medium, 5% foetal calf serum and 1% G418.
After culturing for 24 hours, the culture medium is changed (with or without the serum) and the product to be studied is added in solution in dimethylformamide (DMF), in the presence or in the absence of DTT (final concentrations of 0.5% in DMF and 0.1 mM in DTT). After culturing for 24 hours at 37° C., the cells are lysed in 1 cm^3 of lysis buffer (20 mM Tris, HCl, 1% Triton X114, 5 mM MgCl2, 7 mM DTT, 150 mM NaCl, pH=7.4). The lysates are clarified by centrifuging at 4000 revolutions/minute for 10 minutes. […] The radioactivity of the bands corresponding to farnesylated Ras and to non-farnesylated Ras makes it possible to determine the percentage of inhibition of farnesylation of the Ras protein.

Compound	IC50 [1]	inhibition at 10 µM [2]
CSCC[C@H](NC(=O)c1ccc(NC[C@@H](N)CS)c2ccccc12)C(=O)O [Example 1, N-[4-(2(R)-amino-3-mercaptopropylamino)naphthyl-1-carbonyl]-L-methionine]	0.023 µM	–
CSCC[C@H](NC(=O)c1cc(NC[C@@H](N)CS)cc2ccccc12)C(=O)O [Example 4, N-[3-(2(R)-amino-3-mercaptopropylamino)naphthyl-1-carbonyl]-L-methionine]	0.031 µM	–
COC(=O)[C@H](CCSC)NC(=O)c1cc(NC[C@@H](N)CS)cc2ccccc12 [Example 5, methyl ester of N-[3-(2(R)-amino-3-mercaptopropylamino)naphthyl-1-carbonyl]-L-methionine]	0.3 µM	–
CSCC[C@H](NC(=S)c1cc(NC[C@@H](N)CS)cc2ccccc12)C(=O)O [Example 6, N-[3-(2(R)-amino-3-mercaptopropylamino)naphthyl-1-thiocarbonyl]-L-methionine]	0.055 µM	–
COC(=O)[C@H](CCSC)NC(=O)c1ccc(NC[C@@H](N)CS)c2ccccc12 [Example 2, methyl ester of N-[4-(2(R)-amino-3-mercaptopropylamino)naphthyl-1-carbonyl]-L-methionine]	0.1 µM	40%
